The assay addresses Envelope glycoprotein gp160 (Human immunodeficiency virus 1, UniProt Q6QLK5). Description: cell-free HIV fusion peptide-binding blockers – biochemical, uHTS, fluorescence dequenching, […] (AID 1986).

Calls of active or inactive are those of the source. Cut-off read from the data, not from the text of the source: actives have a measured IC50 and inactives only a lower limit.

Envelope glycoprotein gp160, sequence (Q6QLK5 whole entry, the tested form may be a part): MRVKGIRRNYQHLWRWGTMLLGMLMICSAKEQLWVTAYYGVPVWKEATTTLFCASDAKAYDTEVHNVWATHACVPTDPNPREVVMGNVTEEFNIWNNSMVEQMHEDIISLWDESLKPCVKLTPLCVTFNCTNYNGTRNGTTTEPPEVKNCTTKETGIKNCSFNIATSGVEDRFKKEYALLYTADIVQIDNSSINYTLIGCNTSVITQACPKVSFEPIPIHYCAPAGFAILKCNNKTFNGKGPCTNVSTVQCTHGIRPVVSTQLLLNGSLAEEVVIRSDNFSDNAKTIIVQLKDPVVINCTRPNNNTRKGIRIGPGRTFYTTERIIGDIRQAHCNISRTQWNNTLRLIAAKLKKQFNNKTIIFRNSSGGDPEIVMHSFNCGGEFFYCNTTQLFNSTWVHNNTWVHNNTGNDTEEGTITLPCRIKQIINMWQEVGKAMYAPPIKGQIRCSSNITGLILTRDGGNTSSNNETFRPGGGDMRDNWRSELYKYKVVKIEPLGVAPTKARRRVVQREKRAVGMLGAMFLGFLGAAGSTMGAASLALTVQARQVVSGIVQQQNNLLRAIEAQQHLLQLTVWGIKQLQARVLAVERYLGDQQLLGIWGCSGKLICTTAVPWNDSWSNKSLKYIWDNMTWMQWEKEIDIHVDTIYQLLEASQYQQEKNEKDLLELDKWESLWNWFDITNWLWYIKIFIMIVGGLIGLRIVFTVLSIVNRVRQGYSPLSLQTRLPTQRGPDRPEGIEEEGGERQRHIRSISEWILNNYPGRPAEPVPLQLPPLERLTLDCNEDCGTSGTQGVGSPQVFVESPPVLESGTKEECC

In general, IC50 refers to the concentration needed to halve the response being measured. As for `CC(c1ccccc1)N1C(=O)c2ccc(C(=O)Nc3ccc(Br)cc3C(=O)O)cc2C1=O` (configuration not stated), the IC50 is 14.1 µM (active).
For the compound `CC(C)(C)c1ccc(S(=O)(=O)/N=C2\C=C(NS(=O)(=O)c3ccccc3)C(=O)c3ccccc32)cc1`, the IC50 is 9.23 µM (active).

(Values after ChEMBL document CHEMBL1201862, “PubChem BioAssay data set” (2004).)
